Reference: patent US9458194B2, “Compounds useful in the treatment and/or care of the skin and their cosmetic or pharmaceutical compositions” (Lubrizol Advanced Materials, Inc., priority 2013, dated 2016)

Legend:
Type in all cases: cell-based
[1] = system: human fibulin-5 gene promoter; test: Luminescence assay of human fibulin-5 gene promoter activation (Firefly luciferase); details: positive control, 10 ng/mL
Method: (§1) The effect of the compounds of the invention on the activity of the fibulin-5 and LOXL1 promoters was studied and compared to the levels of basal expression of the untreated cells (negative control) and with the effect of Interleukin-1β (IL-1β) in the same conditions.
(§2) Cells from an epithelial cell line doubly transfected with fibulin-5 and LOXL1 human promoters in which the luciferase gene is under the regulatory control of said promoters (4×10^4 cells/well) were seeded in a white plate and in a 96-well transparent plate, both treated with polylysine, and were incubated in Dulbecco's Modified Eagle Medium (DMEM-Glutamax™), with 10% of FBS, 1% Penicillin-Streptomycin (P/S), 1 mg/ml of Geneticin® (G418) and […] at 37° C. in at atmosphere with 5% CO2. After the incubation, the cells were incubated for 6 hours at 37° C. in at atmosphere with 5% CO2 with DMEM without serum. Then, this medium was removed and the cells were treated with different compounds at 0.1 mg/ml, 0.5 mg/ml, 1 mg/ml or 2 mg/mL in DMEM/1% FBS for 16-24 hours. As a positive control to activate the fibulin-5 and LOXL1 promoters 10 ng/ml of IL-1β were used and as a negative control untreated cells were used, just with DMEM/1% FBS. The incubations and treatments were carried out in parallel in the white plate and the transparent plate and in triplicate for each condition. After the treatment, the relative light units per second were determined (RLU/s) in the white plate by means of consecutive quantification of the activities of Firefly luciferase (fibulin-5 promoter) and Renilla luciferase (LOXL1 promoter), and the number of total cells/well in the transparent plate by means of staining with Crystal Violet (CV). To determine the Firefly and Renilla luciferase activities the Dual-Glo Luciferase Assay System kit by Promega was used. The cells were briefly lysed and the Firefly luciferase substrate was added. After incubating for 10 min at 25° C., the RLU/s were quantified by luminescence reader (Lumistar-BMG). Then the Firefly signal was extinguished and the Renilla luciferase substrate was added. After incubating for 5 min at 25° C., the RLU/s were quantified by the same luminescence reader. With regard to the determination of the total number of cells by Crystal Violet, the CV dyes the DNA of the cells and the quantity of dye taken by the cells can be measured in an absorbency reader at 630 nm (Multiskan Ascent). The color obtained is directly proportional to the total number of cells per well. The cells were briefly incubated with 0.05% CV plus 4% Formalin for 20 minutes and after several washes with Milli-Q water, the cells were left to dry for 1-2 hours and then 0.1 M of HCl was added for its immediate reading. The RLU/s of the luciferases corresponding to each promoter were normalized by the average of the total number of cells per condition. Three independent assays with 3 measurements per assay were carried out for Ac-L-Asp-L-Val-L-Lys-L-Tyr-OH at 0.1 mg/mL and 1 mg/mL. 1 assay with 3 measurements was carried out for the other compounds and concentrations.
(§3) The increase in the activity of the promoters with regard to the levels of expression of the negative control was determined.

[2] = system: human LOXL1 gene promoter; test: Luminescence assay of human LOXL1 gene promoter activation (Renilla luciferase); details: positive control, 10 ng/mL
Method: as §1, §2, §3

fibulin-5 = test: Immunofluorescence of fibulin-5 protein expression in human dermal fibroblasts; details: for Increase in the expression of the protein fibulin-5 with regard to the negative control: 48 hours, HDFa; for Average increase of the expression of the proteins fibulin-5 and LOXL1: positive control, average for both proteins
Method: (§4) In this experiment the number of times that the expression of the proteins fibulin-5 and LOXL1 in human dermal fibroblasts is increased with regard to the basal levels in untreated cells (negative control) when treating the cells with 0.5 mg/ml of the product Ac-L-Asp-L-Val-L-Lys-L-Tyr-OH and it is compared with the effect of Interleukin-1β (IL-1β) at 20 ng/ml and TGF-β at 5 ng/ml (positive controls), which increase an average of 1.5 times and 2 times, respectively, the expression of these proteins, in the same conditions.
(§5) Adult human dermal fibroblasts were seeded (HDFa) (2.5×10^3 cells/well) in a 96-well transparent plate, treated with polylysine, and were incubated in complete medium 106 for 72 hours at 37° C. in an atmosphere with 5% CO2. After the incubation, the cells were treated with the different compounds in complete medium 106 for 48 hours at 37° C. in an atmosphere with 5% CO2. As positive controls of increase of the expression of the proteins fibulin-5 and LOXL1, 5 ng/ml of TGF-β and 20 ng/ml of IL-1β were used and as a negative control untreated cells were used, just with complete medium 106. The incubations and the treatments were carried out in quadruplicate for each condition. After the treatment, the levels of expression of both proteins were quantified relatively by using specific fluorescent antibodies, photographic recording by microscopy and subsequent quantification of the fluorescent signal using image processing software, the number of total cells by fluorescent staining of the nuclei (DAPI) and subsequent quantification in the same images. For the determination of the expression of the proteins fibulin-5 and LOXL1 the cells were washed with PBS 48 hours after the treatments and were fixed with paraformaldehyde. Next, duplicates of each treatment were used to mark separately the fibulin-5 and LOXL1 proteins. For each of the proteins a specific primary monoclonal antibody was used (Abcam). After the primary incubation, the cells were washed with PBS and the secondary marking was carried out with specific fluorescent polyclonal antibodies for each primary antibody. For fibulin-5 an Alexa Fluor® 594 (red) secondary antibody was used and for LOXL1 an Alexa Fluor® 488 (green) secondary antibody was used. 16 hours later all the samples were stained with DAPI (4′,6-Diamidino-2-Phenylindole), fluorescent marker for the staining of nuclei, and the photographic recording was carried out by fluorescence microscopy in a Leica microscope. 2-4 images were taken per condition and per protein and the fluorescent signals were quantified (IOD) corresponding to each protein and the nuclei by means of image analysis software. The fibulin-5 and LOXL1 signals were normalized according to the number of total nuclei for each image. 3 independent assays were carried out.

LOXL1 = test: Immunofluorescence of LOXL1 protein expression in human dermal fibroblasts; details: 48 hours, HDFa
Method: as §4
as §5, with “For the determination of the expression of the proteins fibulin-5 and LOXL1 the cells were washed with PBS 48 hours after the treatments and were fixed with paraformaldehyde. Next, duplicates of each treatment were used to mark separately the fibulin-5 and LOXL1 proteins. For each of the proteins a specific primary monoclonal antibody was used (Abcam). After the primary incubation, the cells were washed with PBS and the secondary marking was carried out with specific fluorescent polyclonal antibodies for each primary antibody. For fibulin-5 an Alexa Fluor® 594 (red) secondary antibody was used and for LOXL1 an Alexa Fluor® 488 (green) secondary antibody was used.” left out, “The fibulin-5 and LOXL1 signals were normalized according to the number of total nuclei for each image. 3 independent assays were carried out.” left out

elastin = test: Elastin synthesis in human dermal fibroblasts (Fastin Elastin Assay); details: positive control, 10 ng/mL, 48 hours, vs negative control
Method: Stimulation of elastin synthesis induced by Ac-L-Asp-L-Val-L-Lys-L-Tyr-OH was evaluated by means of a quantitative method of staining, Fastin Elastin Assay (Tebu-Bio). Human dermal fibroblasts were trypsinized and seeded at a density of 7×10^4 cells/well in 6-well plates. After 72 hours of incubation at 37° C., 5% CO2, with a humidified atmosphere, a new medium was added with 0.01 μg/mL Ac-L-Asp-L-Val-L-Lys-L-Tyr-OH. Untreated cells were used as negative controls and cells treated with TGF-1β (Peprotech) were used as positive controls. The cells were incubated for an additional 48 hours at 37° C., 5% CO2, with humidified atmosphere. Subsequently, the elastin was solubilized and extracted, for which the cells were washed twice with PBS (Sigma) and a solution was added to uncouple the cells (Cell Dissociation Solution, Sigma). The suspension of cells was transferred to centrifuge tubes, 1 M Oxalic Acid was added provided by the kit and they were incubated at 100° C. for 1 hour. Once the elastin became soluble, a calibration curve was prepared with the elastin provided with the kit. From that point, the samples and dilutions of the calibration curve were processed following the kit instructions to isolate and stain the elastin. Lastly, the dye was extracted and the absorbency reading was carried out at a wave length of 540 nm in a TECAN GENios spectrophotometric reader.

With “IL-1β: Interleukin-1β, positive control to activate the fibulin-5 and LOXL1 promoters and increase expression of the proteins [reference compound]” the “Increase in the activity of the human promoter of the FIBULIN 5 gene with regard to the negative control” value [1] was 80.40%, the “Increase in the activity of the human promoter of the LOXL1 gene with regard to the negative control” value [2] was 156.26% and the “Increase in the expression of the protein fibulin-5 with regard to the negative control” value (fibulin-5; 20 ng/mL) was 42.07%. For the same substance, the “Average increase of the expression of the proteins fibulin-5 and LOXL1” value (fibulin-5; 20 ng/ml) was 1.5 times and the “Increase in the expression of the protein LOXL1 with regard to the negative control” value (LOXL1; 20 ng/mL) was 87.50%.

In the case of “TGF-1β: TGF-1β (Peprotech), positive control in the elastin synthesis assay [reference compound]”, the “INCREASE IN ELASTIN SYNTHESIS” value (elastin) was 35.6%.

In the case of TGF-β, the “Increase in the expression of the protein fibulin-5 with regard to the negative control” value (fibulin-5; 5 ng/mL) was 147.72%, the “Average increase of the expression of the proteins fibulin-5 and LOXL1” value (fibulin-5; 5 ng/ml) was 2 times and the “Increase in the expression of the protein LOXL1 with regard to the negative control” value (LOXL1; 5 ng/mL) was 45.93%.
